Measurements published in US4465685A, “Antiinflammatory pyrazole thioureas” (Burroughs Wellcome Co., priority 1980, dated 1984).

Columns and labels:
cyclo-oxygenase = assay: enzyme assay (Blackwell and Flower), inhibition of cyclo-oxygenase; format: biochemical; conditions: read-out: ED50 Cyclo-oxygenase
lipoxygenase = assay: enzyme assay (Blackwell and Flower), inhibition of lipoxygenase; format: biochemical; conditions: read-out: ED50 Lipoxygenase

SMILES	IC50 (cyclo-oxygenase)	IC50 (lipoxygenase)
CNC(=O)NC1=NN(c2cccc(C(F)(F)F)c2)CC1 [Example 2, 3-(N^2-methylureido)-1-(3-trifluoromethylphenyl)-2-pyrazoline]	3000 nM	3000 nM
CN=C(NC1=NN(c2ccc(Cl)cc2)CC1)SC [Example 9, N,S-dimethyl-N^2 -/1-(4-chlorophenyl)-2-pyrazoline-3-yl/isothiourea hydriodide]	10000 nM	10000 nM
CNC(=S)NC1=NN(c2ccc(Cl)cc2)CC1 [Example 6, 3-(3-methylthioureido)-1-(4-chlorophenyl)-2-pyrazoline]	5000 nM	3000 nM
O=C(NC1=NN(c2cccc(C(F)(F)F)c2)CC1)Nc1ccccc1 [Example 1, 3-(N^2-phenylureido)-1-(3-trifluoromethylphenyl)-2-pyrazoline]	3000 nM	5000 to 10000 nM
CNC(=S)NC1=NN(c2ccccc2Cl)CC1 [Example 14, 1-(2-Chlorophenyl)-3-(3-methylthioureido)-2-pyrazoline]	10000 nM	10000 nM
CNC(=S)NC1=NN(c2cccc(C(F)(F)F)c2)CC1 [Example 3, 3-(N^2-methylthioureido)-1-(3-trifluoromethylphenyl)-2-pyrazoline]	1000 nM	1000 nM

Continued by falling IC50 (cyclo-oxygenase), values first:

IC50 (cyclo-oxygenase)	IC50 (lipoxygenase)	SMILES
10000 nM	10000 nM	CCCCNC(=S)NC1=NN(c2cccc(C(F)(F)F)c2)CC1 [Example 8, 3-(3-butylthioureido)-1-(3-trifluoromethylphenyl)-2-pyrazoline]
10000 nM	10000 nM	CNC(=S)NC1=NN(c2cnc3ccccc3c2)CC1 [Example 13, 3-(3-Methylthioureido)-1-(3-quinolyl)-2-pyrazoline]
1000 nM	1000 nM	CN=C(NC1=NN(c2cccc(C(F)(F)F)c2)CC1)SC [Example 5, 3-(N^2,S-dimethylisothioureido)-1-(3-trifluoromethylphenyl)-2-pyrazoline hydriodide monohydrate]
1000 nM	1000 nM	CN=C(NC1=NN(c2ccc3ccccc3c2)CC1)SC [Example 17, N^1,S-Dimethyl-N^2 -/1-(2-naphthyl)-2-pyrazolin-3-yl/isothiourea hydriodide]
250 nM	1000 nM	CNC(=S)NC1=NN(c2ccc3ccccc3c2)CC1 [Example 10, 3-(3-methylthioureido)-1-(2-naphthyl)-2-pyrazoline]
